Test results from article PMC3639484 (Journal of chromatography. A, 2013).

Test: HILIC/SALT
Type: physicochemical
Conditions: isocratic acetonitrile 0%, 10%, 20%, 30%, 40%, 50% and 60% in 0.2% aq. H3PO4, 30 °C

Which “retention on Penta-HILIC column” value does the source give for “Ac-KWKSFLKTFSKAKKKKLKTLLKAISK-NH2 [Peptide D14]” here?
The value was “No retention”.
